These results are taken from US10913781B2, “Pepducin design and use” (Tufts Medical Center, Inc., priority 2011, dated 2021).

Assay [1] has as its target T1, PAR1 (Homo sapiens, UniProt P25116).
T1 sequence (P25116 22-425): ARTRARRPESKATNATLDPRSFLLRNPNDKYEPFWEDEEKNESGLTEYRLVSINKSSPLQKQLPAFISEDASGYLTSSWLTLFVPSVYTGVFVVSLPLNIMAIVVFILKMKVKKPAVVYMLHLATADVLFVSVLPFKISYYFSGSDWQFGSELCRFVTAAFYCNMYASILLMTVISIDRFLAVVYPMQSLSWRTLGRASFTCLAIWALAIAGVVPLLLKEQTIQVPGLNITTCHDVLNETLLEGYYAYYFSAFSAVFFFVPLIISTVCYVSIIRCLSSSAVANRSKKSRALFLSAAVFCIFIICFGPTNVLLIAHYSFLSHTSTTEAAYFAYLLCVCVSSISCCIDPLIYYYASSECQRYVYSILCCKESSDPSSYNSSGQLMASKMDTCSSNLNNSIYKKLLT
As to the kind of experiment: ERK1/2 phosphorylation in A549 cells (thrombin or […]), Western blot. In kind it is cell-based. Further details: endogenous in cells; host or cells: A549, HOP62, H1299, H522, H226, HOP92 lung carcinoma lines. The following applies: A549 cells; pepducin 0.1-3 μM. As for the experimental part: FIG. 9 illustrates that differential inhibition of PAR1-ERK activation by i3- and i1-derived PAR1 pepducins. (A-C): Western blots of lysates from A549 cells untreated, or treated with thrombin, SLIGKV (SEQ ID NO:29), or AYPGKF (SEQ ID NO:5). Indicated samples were pretreated with various concentrations (0.1 to 3 μmol/L) of P1pal-7, P1pal-10S, or P1pal-i1-11 before stimulation and immunoblotted with anti-phospho-ERK. (D-F): Quantification of the Western blots in (A-C) were conducted by densitometry and results are expressed relative to maximum (fold max) phosphorylation of pERK.
(B): A549 cells stimulated with 10 μM […] over 2 h. A549 cells pretreated with 0.1 μM P1pal-7 and stimulated with 10 μM […] (SEQ ID NO:30) for 5 min. Total ERK was used as a loading control.
Last, there has been a great deal of interest in understanding the mechanism of PAR1-mediated activation of MAP kinase cascade and PAR1-dependent cellular growth and differentiation, proliferation and gene transcription. […] The effects of i1 versus i3 PAR1 pepducins on ERK1/2 activation were examined in the A549 lung adenocarcinoma cell line. […] Inhibition experiments with a range of pepducin concentrations (0.1-3 μM) were conducted. […] The […] (SEQ ID NO:30) peptide gave a rapid and transient ERK1/2 phosphorylation signal that peaked at 5-15 min after stimulation. […] To determine the specificity of the PAR1 pepducin inhibitors, their effects on the closely related PAR2 and PAR4 receptors were also tested.
A general note: A western blot detects proteins with antibodies after separation by electrophoresis.

In assay [2] the target is T1, PAR1. As to the kind of experiment: PAR1-dependent human platelet aggregation (SFLLRN). In kind it is cell-based. Details: endogenous in cells. To be noted: 2.5 μM SFLLRN; P2pal-18S 1 μM or 5 μM. As for the experimental part:
FIG. 5 illustrates: (A) PAR1-dependent human platelet aggregation is not affected by P2pal-18S. Gel-filtered platelets were incubated with 2.5 μM SFLLRN (SEQ ID NO:1) to induce PAR1-dependent platelet aggregation. […] Error bars represent mean±SD. […] Cells were lifted and incubated in PBS/0.4% BSA for 30 min at 25° C. with 0.5-30 μM P2pal-18S or P2pal-14GQ. Propidium iodide (PI) was added directly to the cells and after a 15 min incubation, PI uptake was quantified by flow cytometry. […] Error bars represent ±SEM.

In assay [3] the target is T1, PAR1. Put plainly: [3H]-InsP formation in COS7 cells transfected with PAR1. Type of assay: cell-based. Details: expressed in transfected cells; host or cells: COS7. The following applies: 1 μM TFLLRN, 30 min. As for the experimental part: (A) PAR2 antagonist pepducins P2pal-18S and P2pal-14GQ inhibit calcium flux induced by PAR2 (SLIGRL) (SEQ ID NO:4) but not PAR1 (TFLLRN) (SEQ ID NO:2) agonists. SW620 cells were stably transfected with PAR1 and pretreated for 1 min with various concentrations of P2pal-18S or P2pal-14GQ and then stimulated with 30 μM PAR agonist. […] Cells were stimulated with 1 μM TFLLRN (SEQ ID NO:2), 1 μM SLIGRL (SEQ ID NO:4) or 100 μM AYPGKF (SEQ ID NO:5) and [^3H]-InsP formation measured over 30 min. (C) SW620 cells were treated with the indicated concentrations of P2pal-18S or P2pal-14GQ in the upper well of an 8-μm pore Boyden chamber and allowed to migrate for 18 h towards 10 μM of the PAR2 specific agonist SLIGRL in the lower chamber. The migration to RPMI/0.1% FBS represents random migration. (D) Migration of HEK cells transiently transfected with PAR2 (wild-type, WT), or PAR2-R36A/PAR2-RQ toward chemotactic gradients of 30 nM trypsin in the absence or presence of the indicated concentration of P2pal-18S for 18 h in a transwell apparatus ([…]). Data (n=2-4) are mean±SEM. *, P<0.05 and **, P<0.005.

The target of assay [4] is T2, PAR2 (Homo sapiens, UniProt P55085). As to the kind of experiment: Agonist | (%)^†. Details: SW620 colon adenocarcinoma cells that endogenously express PAR2; endogenous in cells; host or cells: SW620 (in A7 the SW620 cells were additionally stably transfected with PAR1). To be noted: 4 µM.
Target sequence in this assay (P55085 26-397 limits assumed): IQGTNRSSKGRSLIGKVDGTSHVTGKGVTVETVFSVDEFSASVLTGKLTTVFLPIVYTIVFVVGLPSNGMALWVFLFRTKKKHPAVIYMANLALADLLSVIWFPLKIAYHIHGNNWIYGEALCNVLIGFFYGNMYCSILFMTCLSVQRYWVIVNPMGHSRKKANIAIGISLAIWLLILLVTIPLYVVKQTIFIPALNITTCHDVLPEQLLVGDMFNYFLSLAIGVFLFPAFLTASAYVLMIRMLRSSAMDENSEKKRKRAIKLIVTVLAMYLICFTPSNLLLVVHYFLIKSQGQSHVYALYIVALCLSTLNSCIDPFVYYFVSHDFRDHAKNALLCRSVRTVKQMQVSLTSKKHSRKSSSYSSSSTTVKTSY
Experimental: (A) Agonist and antagonist activity of third intracellular (i3) loop PAR2 pepducins (structure shown on top) using calcium flux assays with SW620 colon adenocarcinoma cells that endogenously express PAR2. Each column of three calcium flux traces corresponds to the i3 pepducin sequence shown above. The top row is the agonist activity of 3-4 μM pepducin and the middle row is the agonist activity of 14-15 μM pepducin. […] Final concentration of DMSO vehicle was 0.2%. […] (C) Agonist activity for each pepducin from (A) is reported as initial velocity of calcium flux at 4 μM pepducin (†), or at 14-15 μM pepducin (‡).
The target in assay [5] is T2, PAR2. Put plainly: PAR2 binding to avidin beads coupled with PAR2 i3 loop 18S peptide.
Target sequence in this assay (P55085 26-397): as the sequence (P55085 26-397 limits assumed) above
In a further assay the target is T3, PAR4 (Homo sapiens, UniProt Q96RI0).
T3 sequence (Q96RI0 18-385): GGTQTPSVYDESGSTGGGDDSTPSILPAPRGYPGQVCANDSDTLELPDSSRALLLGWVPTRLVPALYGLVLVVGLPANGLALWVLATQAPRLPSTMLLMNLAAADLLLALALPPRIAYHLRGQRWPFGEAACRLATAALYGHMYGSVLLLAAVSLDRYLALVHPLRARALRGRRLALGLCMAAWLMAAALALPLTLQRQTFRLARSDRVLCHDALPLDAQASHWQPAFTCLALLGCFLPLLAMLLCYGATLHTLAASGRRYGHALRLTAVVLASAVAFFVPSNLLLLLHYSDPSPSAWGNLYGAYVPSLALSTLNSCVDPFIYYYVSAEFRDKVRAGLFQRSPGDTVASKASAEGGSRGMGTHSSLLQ
Put plainly: Calcium flux assay in SW620 cells, PAR4. Details: endogenous in cells. Type of assay: cell-based. (In general: A change in cytosolic calcium serves as a functional read-out for many receptors and channels.)

Peptide text beside a SMILES is read from it. * marks the point of attachment. Palmitoyl = CCCCCCCCCCCCCCCC(=O)*

With `CCCCCCCCCCCCCCCC(=O)N[C@H](C(=O)N[C@@H](CC(C)C)C(=O)N[C@@H](CCCCN)C(=O)N[C@@H](CCSC)C(=O)N[C@@H](CCCCN)C(=O)N[C@H](C(=O)N[C@@H](CCCCN)C(=O)N[C@@H](CCCCN)C(=O)N1CCC[C@H]1C(=O)N[C@@H](C)C(=O)N[C@H](C(N)=O)C(C)C)C(C)C)[C@@H](C)CC` [P1pal-i1-11] (Palmitoyl-ILKMKVKKPAV-NH2), the “Effect on thrombin-induced ERK1/2 phosphorylation” value on PAR1 [1] is “no effect”.

As for `CCCCCCCCCCCCCCCC(=O)N[C@@H](CCCNC(=N)N)C(=O)N[C@@H](CO)C(=O)N[C@@H](CO)C(=O)N[C@@H](C)C(=O)N[C@@H](CCSC)C(=O)N[C@@H](CC(=O)O)C(=O)N[C@@H](CCC(=O)O)C(=O)N[C@@H](CC(N)=O)C(=O)N[C@@H](CO)C(=O)N[C@@H](CCC(=O)O)C(=O)N[C@@H](CCCCN)C(=O)N[C@@H](CCCCN)C(=O)N[C@@H](CCCNC(=N)N)C(=O)N[C@@H](CCCCN)C(=O)N[C@@H](CO)C(=O)N[C@@H](C)C(=O)N[C@H](C(=O)N[C@@H](CCCCN)C(N)=O)[C@@H](C)CC` [P2pal-18S], the “Effect on PAR1-dependent platelet aggregation” value at PAR1 [2] is given as “had no effect”. Besides, the “Inhibition of InsP signaling from PAR1” value at PAR1 [3] was “do not inhibit”. Also, on PAR2 [4], the “Agonist | (%)^†” value stood at 3%. The “Binding of PAR2 to peptide-coupled avidin beads versus beads alone” value at PAR2 [5] is listed as “enhanced binding”. For the same molecule, at PAR4, the “Inhibition of PAR4 calcium flux” value is “did not inhibit”.
